Measurements taken from patent US20100331384A1, “GUANIDINE BASED COMPOUNDS” (UNIVERSIDAD DEL PAIS VASCO/EUSKAL HERRIKO UNIBERTSITATEA, priority 2007, published 2010).

Columns and labels:
[1] = target: T1, α2-ARs (Homo sapiens, UniProt P08913); test: [35S]GTPγS binding functional assay, compounds alone; assay type: biochemical; details: for agonistic or antagonistic properties in [35S]GTPγS experiments: human brain PFC; for stimulation of [35S]GTPγS binding by the compound on its own: human brain PFC membranes
T1 construct: other: human brain tissue in vitro; other: stimulation of [35S]GTPγS b
Procedure: The [^35S]GTPγs binding assay constitutes a functional measure of the interaction of the receptor and the G-protein and is a useful tool to distinguish between agonists (increasing the nucleotide binding), inverse agonists (decreasing the nucleotide binding), and neutral antagonists (not affecting the nucleotide binding) of GPCRs.^20 Experiments were performed in low-affinity receptor conditions for agonists (presence of guanine nucleotides and sodium in the medium), and therefore, typical potency values are two-three logarithmic units lower than affinity values obtained in radioligand receptor binding experiments.^20
(§1) Preparation of membranes. Neural membranes (P2 fractions) were prepared from the PFC of human brains obtained at autopsy in the Instituto Vasco de Medicina Legal, Bilbao, Spain. Postmortem human brain samples of each subject (˜1 g) were homogenized using a Teflon-glass grinder (10 up-and-down strokes at 1500 rpm) in 30 volumes of homogenization buffer (1 mM MgCl2, and 5 mM Tris-HCl, pH 7.4) supplemented with 0.25 M sucrose. The crude homogenate was centrifuged for 5 min at 1000×g ([…]) and the supernatant was centrifuged again for 10 min at 40000×g (4° C.). The resultant pellet was washed twice in 20 volumes of homogenization buffer and recentrifuged in similar conditions. Aliquots of 1 mg protein were stored at −70° C. until assay.
[^35S]GTPγs binding assays. The incubation buffer for measuring [^35S]GTPγs binding to brain membranes contained, in a total volume of 500 μL, 1 mM EGTA, 3 mM MgCl2, 100 mM NaCl, […], 50 mM Tris-HCl at pH 7.4 and 0.5 nM [^35S]GTPγs. Proteins aliquots were thawed and re-suspended in the same buffer. The incubation was started by addition of the membrane suspension (40 μg of membrane proteins) to the previous mixture and was performed at 30° C. for 120 min with shaking. In order to evaluate the influence of the compounds on [^35S]GTPγs binding, 8 concentrations (10^−10 to 10^−3M) of the different compounds were added to the assay. Incubations were terminated by adding 3 mL of ice-cold re-suspension buffer followed by rapid filtration through Whatman GF/C filters pre-soaked in the same buffer. The filters were rinsed twice with 3 mL of ice-cold re-suspension buffer, transferred to vials containing 5 mL of OptiPhase HiSafe II cocktail (Wallac, UK) and the radioactivity trapped was determined by liquid scintillation spectrometry (Packard 2200CA). […] Non-specific binding of the radioligand was defined as the remaining [^35S]GTPγs binding in the presence of 10 μM unlabelled GTPγs.

[2] = target: T1, α2-ARs; test: [3H]RX821002 competition binding assay in human brain PFC membranes; details: human brain tissue in vitro
[3] = tested on: cloned human α2-AR receptor; details: disclosed in WO9846572; cited from earlier work
[4] = tested on: extracellular NA levels in the PFC; test: In vivo microdialysis in the PFC, extracellular NA; design: species or system male Sprague Dawley rats; details: for Emax of increase in extracellular NA levels: local administration by reverse dialysis 1-100 μM in PFC, percentage of basal values
Source text: Intracerebral microdialysis is a neurochemical technique that has been applied extensively in pharmacological studies aimed at investigating the effect of different drugs on brain neurotransmission. This technique allows one to collect a representative concentration of different neurotransmitters of the area where the probe is implanted while the animals are awake and freely moving.^21
Most antidepressant drugs are able to increase NA extracellular concentrations in different brain areas as the PFC, an area implicated in depression disease. Considering that α2-ARs exert a tonic inhibitory action on NA release from the noradrenergic terminals we assessed the ability of these two new compounds to increase NA extracellular concentration in this area. First, we tested the drugs when administered locally in order to confirm their antagonistic activity over α2-ARs in vivo.
A second step was to study the effect of these compounds increasing NA extracellular concentrations when administered systemically.
In Vivo Microdialysis assays. The experiments were carried out in male Sprague Dawley rats weighing between 250 g and 300 g. At the beginning of the experiments, animals were anaesthetized with chloral hydrate (400 mg/kg i.p.) and a microdialysis probe was implanted by stereotaxic surgery into prefrontal cortex (PFC) brain area. The coordinates selected for the PFC were as follows: AP (anterior to bregma) +2.8 mm, L (lateral from the mid-sagittal suture) +1 mm, DV (ventral from the dura surface) −5 mm.^22 After 24 hours for animal recovery, perfusion fluid (artificial cerebrospinal fluid) is pumped through the probe at a flow rate of 1 μl/min. In the semipermeable membrane, that is the critical side of the probe and is placed on the selected area, molecules flow into and out the cannulae by diffusion. Therefore, microdialysis technique allows local administration of substrates dissolved in the perfusion fluids.
When drugs were locally administered, they were dissolved in a CSF and applied during 70 min via dialysis probe implanted in the PFC in increasing concentrations of 1, 10 and 100 μM. The compounds systemically administered were dissolved in saline and injected intraperitoneally.
Samples, collected with the microdialysis procedure (every 35 min), were analyzed by HPLC with electrochemical detection. NA concentrations were monitorizated by an amperometric detector (Hewlett-Packard model 1049A) at an oxidizing potential of +650 mV. The movil phase (12 mM citric acid, 1 mM EDTA, 0.7 mM octylsodio sulfate, pH 5 and 10% methanol) was filtered, degassed (Hewlett-Packard model 1100 degasser) and delivered at a flow rate of 0.2 ml/min by a Hewlett-Packard model 1100 pump. Stationary phase was a column of 150×2.1 mm (Thermo Electron Corporation, U.S.A.). Samples (injection volume 37 μl) were injected and NA analized in a run time of 10 min. Solution of standard noradrenaline was injected every working day to create a new calibration table.
The mean values of the first three samples before substrate administration were considered as 100% basal value. All measures of extracellular NA concentrations are expressed as percentage of the baseline value±s.e.mean. One way analysis of variance (ANOVA) for control group or two way ANOVA between control and each treated group was assessed for statistical analysis. After the experiments, rats were sacrificed with an overdose of chloral hydrate and the brains were dissected to check the correct implantation of the probe.

[5] = tested on: mice; test: Tail suspension test; assay type: in vivo; details: compared with saline control, FIG. 4
Source text: The tail suspension test as illustrated in FIG. 4 has become one of the most widely used models for assessing antidepressant-like activity in mice. The test is based on the fact that animals subjected to the short-term, inescapable stress of being suspended by their tail, will develop an immobile posture. Antidepressant medications encourage the animal to struggle and promote the occurrence of escape-related behaviour.

[6] = target: T1, α2-ARs; test: [3H]RX821002 competition binding assay in human brain PFC membranes; details: human brain PFC tissue, competition with [3H]RX821002 1 nM
Procedure: as §1
[^3H]RX821002 binding assays. […] Incubations were terminated by diluting the samples with 5 ml of ice-cold Tris incubation buffer (4° C.). Membrane bound [^3H]RX821002 was separated by vacuum filtration through Whatman GF/C glass fibre filters. Then, the filters were rinsed twice with 5 ml of incubation buffer and transferred to minivials containing 3 ml of OptiPhase “HiSafe” II cocktail and counted for radioactivity by liquid scintillation spectrometry. Specific binding was determined and plotted as a function of the compound concentration. Non-specific binding was determined in the presence of adrenaline (10^−5 M).
Analysis of binding data. Analysis of competition experiments to obtain the inhibition constant (Ki) were performed by nonlinear regression using the GraphPad Prism program. All experiments were analysed assuming a one-site model of radioligand binding. Ki values were normalized to pKi values.

T1 sequence (P08913 whole entry): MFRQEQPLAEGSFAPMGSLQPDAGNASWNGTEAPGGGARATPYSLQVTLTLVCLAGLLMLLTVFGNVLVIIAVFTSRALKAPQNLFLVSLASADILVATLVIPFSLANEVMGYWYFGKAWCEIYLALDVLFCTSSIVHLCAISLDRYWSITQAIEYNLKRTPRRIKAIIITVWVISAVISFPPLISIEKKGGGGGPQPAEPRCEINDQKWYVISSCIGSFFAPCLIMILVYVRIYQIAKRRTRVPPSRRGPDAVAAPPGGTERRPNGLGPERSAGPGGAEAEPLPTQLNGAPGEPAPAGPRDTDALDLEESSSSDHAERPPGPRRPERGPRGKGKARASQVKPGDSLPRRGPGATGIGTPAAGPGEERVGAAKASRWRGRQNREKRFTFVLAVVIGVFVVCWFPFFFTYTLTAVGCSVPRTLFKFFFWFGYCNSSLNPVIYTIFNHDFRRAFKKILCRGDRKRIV

| Structure (SMILES) | agonistic or antagonistic properties in [35S]GTPγS experiments [1] | stimulation of [35S]GTPγS binding by the compound on its own [1] | Emax ([1]; read-out: Emax (%), percentage efficacy relative to UK14304) [%] | affinity towards the α2-ARs compared with references [2] | activity at cloned human α2-AR receptor [3] | ability to cross the blood brain barrier (BBB) ([4]; deduced from NA increase after systemic administration) | Emax of increase in extracellular NA levels [4] [%] | α2-AR antagonist properties in vivo ([4]; local and systemic administration, rats) | increase of NA extracellular concentration, maximal effect ([4]; systemic (intraperitoneal) administration, evaluated in PFC) [%] | immobility period [5] | affinity for the α2-ARs expressed as pKi [6] |
| --- | --- | --- | --- | --- | --- | --- | --- | --- | --- | --- | --- |
| c1cc2c(cc1NC1=NCCN1)CCC2 [Compound 9b, 5-(2-imidazolidinylimino)indan] | agonistic properties | stimulated binding | 98 | within the range of those of Idazoxan and/or Clonidine | agonist | – | – | – | – | – | – |
| c1cc(NC2=NCCN2)ccc1CCc1ccc(NC2=NCCN2)cc1 [Compound 20b, 4,4′-di(2-imidazolidinylimino)-1,2-diphenylethane] | antagonistic properties | did not stimulate binding | – | within the range of those of Idazoxan and/or Clonidine | – | able to cross the blood brain barrier | 255±76 | α2-AR antagonist properties in vivo | 156±35 | slightly shorter immobility period than the saline control | – |
| COC1(C2=NCCN2)COc2ccccc2O1 (stereo not drawn) [RX821002, 2-methoxy-idazoxan, reference compound] | – | – | – | – | – | – | 287±49 | – | – | – | 9.04 |
